The text below walks through data of patent US20100119525A1 (priority 2005, published 2010).

One data set has as its system C57B16 mice. Conditions: in vivo; cited from earlier work.
For a further data set, the target named is NPC1L1 (Homo sapiens, UniProt Q9UHC9). Conditions: prokaryotic screening method.
The conditions of data set [1]: in vivo, cited from earlier work.

Chain of NPC1L1 (Q9UHC9 22-1359): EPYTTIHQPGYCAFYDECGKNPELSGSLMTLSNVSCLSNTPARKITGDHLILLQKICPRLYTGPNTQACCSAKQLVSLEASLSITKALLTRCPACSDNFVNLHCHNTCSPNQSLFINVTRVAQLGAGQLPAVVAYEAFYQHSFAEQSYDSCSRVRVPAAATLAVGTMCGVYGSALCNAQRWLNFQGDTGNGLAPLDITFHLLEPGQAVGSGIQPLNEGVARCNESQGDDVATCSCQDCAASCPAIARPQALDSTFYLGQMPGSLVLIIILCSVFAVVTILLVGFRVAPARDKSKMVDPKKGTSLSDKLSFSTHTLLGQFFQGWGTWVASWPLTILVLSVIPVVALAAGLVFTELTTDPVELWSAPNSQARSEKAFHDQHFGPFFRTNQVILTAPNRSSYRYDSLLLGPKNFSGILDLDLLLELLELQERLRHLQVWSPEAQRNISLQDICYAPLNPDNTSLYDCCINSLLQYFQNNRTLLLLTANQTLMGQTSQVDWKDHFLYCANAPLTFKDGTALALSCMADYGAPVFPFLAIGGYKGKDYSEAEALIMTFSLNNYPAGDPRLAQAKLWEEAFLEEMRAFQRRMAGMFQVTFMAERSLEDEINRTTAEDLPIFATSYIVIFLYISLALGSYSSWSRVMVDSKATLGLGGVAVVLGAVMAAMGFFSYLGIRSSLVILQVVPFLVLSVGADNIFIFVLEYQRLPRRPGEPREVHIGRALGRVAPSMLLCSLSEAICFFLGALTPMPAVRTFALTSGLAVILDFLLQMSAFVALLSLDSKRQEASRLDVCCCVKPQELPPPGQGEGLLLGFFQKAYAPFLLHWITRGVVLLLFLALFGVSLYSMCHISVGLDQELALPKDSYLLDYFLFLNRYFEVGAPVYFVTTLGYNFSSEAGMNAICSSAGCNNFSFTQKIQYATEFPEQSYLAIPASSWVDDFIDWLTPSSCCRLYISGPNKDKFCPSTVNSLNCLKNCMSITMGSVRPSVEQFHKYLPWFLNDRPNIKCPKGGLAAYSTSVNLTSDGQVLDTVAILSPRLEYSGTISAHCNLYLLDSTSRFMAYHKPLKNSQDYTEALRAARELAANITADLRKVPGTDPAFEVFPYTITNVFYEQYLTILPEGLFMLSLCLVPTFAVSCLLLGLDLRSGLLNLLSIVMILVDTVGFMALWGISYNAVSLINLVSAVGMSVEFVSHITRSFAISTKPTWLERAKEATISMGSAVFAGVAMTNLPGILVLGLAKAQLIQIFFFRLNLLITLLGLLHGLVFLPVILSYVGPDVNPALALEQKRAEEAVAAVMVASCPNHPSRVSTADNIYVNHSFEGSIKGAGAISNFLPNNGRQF

Consider `COc1ccc2[nH]cc(CCNC(C)=O)c2c1` [melatonin], for which, in the data set on C57B16 mice, the “life of the C57B16 mouse” value was 871 ± 30.5 days.

`CCCC(=O)C1(c2ccccc2)CCNCC1.Cl`: the NPC1L1 inhibitor identification entry on NPC1L1 is “inhibitor was identified”. Take `O=C1[C@H](CC[C@H](O)c2ccc(F)cc2)[C@@H](c2ccc(O)cc2)N1c1ccc(F)cc1` [Zetia®, 1-(4-fluorophenyl)-(3R)-[3-(4-fluorophenyl)-3(S)-hydroxypropyl]-4(S)-(4-hydroxyphenyl)-2-azetidinone]: in data set [1] (po), the “extensively metabolised to the pharmacologically active ezetimibe-glucuronide” value was above 80%. Besides, in data set [1], the accumulation is listed as around 2 fold and the “time at which total Zetia concentrations reach a maximum” value was 1 to 2 h.

Consider ezetimibe-glucuronide, for which, in data set [1] (po), the estimated terminal half-life entry was “approximately 22 hours”.
